Data reported in ChEMBL document CHEMBL1145576, “Synthesis and structure-activity relationship of aminopyrimidine IKK2 inhibitors” (Bioorg Med Chem Lett, 2008).
pIC50: −log10 of the molar value.

Tests used:
[1] = molecular target: T1, Inhibitor of nuclear factor kappa-B kinase subunit beta (Homo sapiens, UniProt O14920); assay: Inhibition of IKK2
T1 sequence (O14920 whole entry): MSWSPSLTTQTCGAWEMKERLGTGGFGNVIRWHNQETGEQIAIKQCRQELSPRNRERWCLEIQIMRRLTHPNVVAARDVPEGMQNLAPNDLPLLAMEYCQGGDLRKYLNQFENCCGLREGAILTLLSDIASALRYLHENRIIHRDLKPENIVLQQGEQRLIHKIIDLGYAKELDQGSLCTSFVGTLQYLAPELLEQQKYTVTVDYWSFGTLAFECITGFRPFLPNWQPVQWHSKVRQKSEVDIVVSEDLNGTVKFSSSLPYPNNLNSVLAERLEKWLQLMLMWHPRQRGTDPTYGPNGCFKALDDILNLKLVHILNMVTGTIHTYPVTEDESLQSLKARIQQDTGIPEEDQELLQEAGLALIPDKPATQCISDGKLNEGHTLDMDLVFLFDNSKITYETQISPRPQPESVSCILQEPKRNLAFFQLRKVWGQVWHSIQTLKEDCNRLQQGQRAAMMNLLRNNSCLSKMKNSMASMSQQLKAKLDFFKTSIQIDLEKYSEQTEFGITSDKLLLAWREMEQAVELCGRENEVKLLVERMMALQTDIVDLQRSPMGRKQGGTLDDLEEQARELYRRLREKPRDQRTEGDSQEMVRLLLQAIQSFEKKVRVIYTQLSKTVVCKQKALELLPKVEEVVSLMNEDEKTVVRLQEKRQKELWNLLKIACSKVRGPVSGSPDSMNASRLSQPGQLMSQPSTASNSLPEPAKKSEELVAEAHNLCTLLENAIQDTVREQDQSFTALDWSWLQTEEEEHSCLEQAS

[2] = molecular target: T2, Inhibitor of nuclear factor kappa-B kinase subunit alpha (Homo sapiens) (UniProt O15111); assay: Inhibition of IKK1 at 10 uM
T2 sequence (whole entry): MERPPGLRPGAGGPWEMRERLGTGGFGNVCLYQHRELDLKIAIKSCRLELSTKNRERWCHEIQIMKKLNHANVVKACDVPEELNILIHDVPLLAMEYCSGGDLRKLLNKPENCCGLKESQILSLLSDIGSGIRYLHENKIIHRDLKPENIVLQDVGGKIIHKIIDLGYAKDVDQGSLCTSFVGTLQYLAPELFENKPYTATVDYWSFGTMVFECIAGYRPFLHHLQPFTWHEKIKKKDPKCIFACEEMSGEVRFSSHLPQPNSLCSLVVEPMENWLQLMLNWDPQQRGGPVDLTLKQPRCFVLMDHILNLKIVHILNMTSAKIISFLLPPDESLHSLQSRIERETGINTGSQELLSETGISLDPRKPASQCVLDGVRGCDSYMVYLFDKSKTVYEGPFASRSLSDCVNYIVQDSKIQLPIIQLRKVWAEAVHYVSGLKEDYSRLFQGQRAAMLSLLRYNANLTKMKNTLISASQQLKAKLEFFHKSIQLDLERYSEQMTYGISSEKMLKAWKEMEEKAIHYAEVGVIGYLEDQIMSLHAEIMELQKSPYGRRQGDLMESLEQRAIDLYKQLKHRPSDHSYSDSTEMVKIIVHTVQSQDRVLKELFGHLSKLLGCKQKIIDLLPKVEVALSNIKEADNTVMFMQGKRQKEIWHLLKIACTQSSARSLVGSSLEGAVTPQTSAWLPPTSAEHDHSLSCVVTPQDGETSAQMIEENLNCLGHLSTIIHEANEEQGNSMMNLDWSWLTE

[3] = Selectivity ratio of IC50 for IKK1 to IC50 for IKK2
[4] = molecular target: T3, Inhibitor of nuclear factor kappa-B kinase subunit alpha (Homo sapiens, UniProt O15111); assay: Inhibition of IKK1
T3 sequence (O15111 whole entry): T2 sequence (whole entry)

A549 = assay: Inhibition of TNF-alpha-stimulated E-selectin promoter transfected human A549 cells after 6 hrs; format: functional, cell-based; settings: A549, 6 h
[5] = Selectivity ratio of IC50 for E-selectin promoter transfected in human A549 cells to IC50 for IKK2; format: functional

pIC50 [1] | inhibition [2] | Ratio IC50 [3] | pIC50 [4] | pIC50 (A549) | SMILES | Ratio IC50 [5]
5.18 | – | – | – | – | c1ccc(Oc2ccc(-c3ccnc(Nc4ccc5ncsc5c4)n3)cc2)cc1 | –
5.60 | 14% | > 4 | – | – | O=c1ccn(-c2ccc(-c3ccnc(Nc4ccc5ncsc5c4)n3)cc2)cc1 | –
6.42 | – | – | 5.17 | 5.74 | O=S(=O)(c1ccc(-c2ccnc(Nc3ccc4ncsc4c3)n2)cc1)N1CCOCC1 | 4.8
– | – | – | 4.89 | – | COc1cccc2nc(-c3cccs3)nc(NN3C(=O)C=C(C)C3=O)c12 [AS-602868] | –
5.44 | – | – | – | – | c1cnc(Oc2ccc(-c3ccnc(Nc4ccc5ncsc5c4)n3)cc2)nc1 | –
5.82 | – | – | – | – | Cc1ccc(S(=O)(=O)Nc2ccc(-c3ccnc(Nc4ccc5ncsc5c4)n3)cc2)cc1 | –
6.27 | 48% | – | – | 5.82 | O=S(=O)(c1ccc(-c2ccnc(Nc3ccc4ncsc4c3)n2)cc1)N1CCCC1 | 2.8
6.36 | 24% | > 22 | – | – | O=S(=O)(c1ccccc1)c1ccc(-c2ccnc(Nc3ccc4ncsc4c3)n2)cc1 | –
6.15 | 34% | > 14 | – | – | c1cn(-c2ccc(-c3ccnc(Nc4ccc5ncsc5c4)n3)cc2)cn1 | –
6.22 | 30% | > 17 | – | 5.68 | O=S(=O)(c1ccc(-c2ccnc(Nc3ccc4ncsc4c3)n2)cc1)N1CCCCC1 | 3.5
6.00 | – | 3 | 5.52 | – | O=S(=O)(Nc1ccc(-c2ccnc(Nc3ccc4ncsc4c3)n2)cc1)c1ccc(Cl)cc1 | –
6.60 | – | – | 5.30 | 6.54 | O=S(=O)(c1ccc(-c2ccnc(Nc3ccc4ncsc4c3)n2)cc1)N1CCSCC1 | 1.2
6.40 | – | – | 5.72 | 5.42 | O=C(Nc1ccc(-c2ccnc(Nc3ccc4ncsc4c3)n2)cc1)C1CCNCC1 | 9.5
5.05 | – | – | – | – | O=S(=O)(Nc1ccc(-c2ccnc(Nc3ccc4ncsc4c3)n2)cc1)c1cc(Cl)c(Cl)s1 | –
6.39 | – | 6 | 5.58 | 5.90 | CN1CCN(c2ccc(-c3ccnc(Nc4ccc5ncsc5c4)n3)cc2)CC1 | 3.1
6.39 | 28% | > 24 | – | 5.72 | CN(C)S(=O)(=O)c1ccc(-c2ccnc(Nc3ccc4ncsc4c3)n2)cc1 | 4.7
5.05 | – | – | – | – | COc1ccc(S(=O)(=O)Nc2ccc(-c3ccnc(Nc4ccc5ncsc5c4)n3)cc2)cc1 | –
6.89 | – | 1 | 6.84 | – | O=C(Nc1ccc(-c2ccnc(Nc3ccc4ncsc4c3)n2)cc1)C1CCCN1 (stereo unspecified) | –
6.57 | – | 3 | 6.14 | – | NCCC(=O)Nc1ccc(-c2ccnc(Nc3ccc4ncsc4c3)n2)cc1 | –
6.64 | – | 21 | 5.32 | 4.75 | O=S(=O)(Nc1ccc(-c2ccnc(Nc3ccc4ncsc4c3)n2)cc1)c1ccc2nonc2c1 | 77
7.19 | – | 13 | 6.07 | 5.24 | O=S(=O)(c1ccc(-c2ccnc(Nc3ccc4ncsc4c3)n2)cc1)N1CCNCC1 | 89
5.40 | – | – | – | – | CN(CCOc1ccc(-c2ccnc(Nc3ccc4ncsc4c3)n2)cc1)c1ccccn1 | –
